GI50 and IC50 data for 16 compounds are collected here from article PMC5890689 (RSC Advances, 2018).

In experiment [1] the test system is MCF-7 (Michigan Cancer Foundation-7). The experiment in a line: SRB assay, MCF-7. As to conditions: Homo sapiens, MCF7, 72 h, read-out: GI50 MCF-7.
Experiment [2] has as its system MDA-MB-231 (human breast carcinoma cell line). The experiment in a line: SRB assay, MDA-MB-231. As to conditions: MDA-MB-231, 72 h, read-out: GI50 MDA-MB-231.
The target of a further experiment is CDK9/cyclin T1 (Homo sapiens, UniProt P50750). In words: CDK9/cyclin T1 kinase assay. It is filed as biochemical.
CDK9/cyclin T1, sequence (P50750 whole entry): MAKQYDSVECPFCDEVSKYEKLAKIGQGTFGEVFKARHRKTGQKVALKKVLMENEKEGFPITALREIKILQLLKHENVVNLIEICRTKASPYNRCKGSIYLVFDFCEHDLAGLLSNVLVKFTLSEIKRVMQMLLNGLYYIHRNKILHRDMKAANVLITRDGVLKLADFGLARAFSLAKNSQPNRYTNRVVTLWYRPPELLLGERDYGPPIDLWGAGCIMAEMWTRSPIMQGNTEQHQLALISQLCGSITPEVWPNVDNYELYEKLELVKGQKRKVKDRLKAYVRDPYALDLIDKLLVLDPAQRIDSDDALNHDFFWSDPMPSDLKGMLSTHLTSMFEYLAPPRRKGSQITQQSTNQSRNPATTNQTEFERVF
CDK9/cyclin T1, sequence (O60563 whole entry partner): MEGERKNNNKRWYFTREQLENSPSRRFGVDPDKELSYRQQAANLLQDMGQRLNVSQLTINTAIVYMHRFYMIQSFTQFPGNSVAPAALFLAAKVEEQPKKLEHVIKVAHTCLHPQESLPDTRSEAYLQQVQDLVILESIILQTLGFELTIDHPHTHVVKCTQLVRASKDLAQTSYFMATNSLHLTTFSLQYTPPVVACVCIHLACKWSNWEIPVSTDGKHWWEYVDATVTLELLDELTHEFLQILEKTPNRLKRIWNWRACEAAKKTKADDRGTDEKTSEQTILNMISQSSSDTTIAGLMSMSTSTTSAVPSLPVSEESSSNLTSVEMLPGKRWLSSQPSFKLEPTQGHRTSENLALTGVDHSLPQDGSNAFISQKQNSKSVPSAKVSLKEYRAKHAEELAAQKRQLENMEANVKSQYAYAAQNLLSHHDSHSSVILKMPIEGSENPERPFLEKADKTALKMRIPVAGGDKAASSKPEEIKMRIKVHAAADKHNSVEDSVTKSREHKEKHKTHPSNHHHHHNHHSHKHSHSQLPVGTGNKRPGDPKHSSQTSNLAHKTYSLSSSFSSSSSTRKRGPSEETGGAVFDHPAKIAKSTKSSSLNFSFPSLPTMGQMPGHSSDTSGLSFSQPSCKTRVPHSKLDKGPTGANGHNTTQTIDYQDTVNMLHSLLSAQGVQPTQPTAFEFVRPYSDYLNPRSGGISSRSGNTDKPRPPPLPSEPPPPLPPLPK
For another experiment, the system named is A549 (lung cancer). In words: SRB assay, A549. As to conditions: Homo sapiens, A549, 72 h, read-out: GI50 A549.
The next experiment addresses CDK2/cyclin A (Homo sapiens, UniProt P24941). The experiment in a line: CDK2/cyclin A kinase assay. The class given is biochemical.
Experiment [3] has as its system KB (nasopharyngeal carcinoma). In words: SRB assay, KB. The conditions noted are these: Homo sapiens, 72 h, read-out: GI50 KB.

As to `CN(C)CCC(=O)Nc1cccc(Nc2ncc(F)c(Nc3c(F)cccc3F)n2)c1` [3c, N-(3-((4-((2,6-Difluorophenyl)amino)-5-fluoropyrimidin-2-yl)amino)phenyl)-3-(dimethylamino)propanamide], the GI50 in experiment [1] worked out at 2650 ± 400 nM; in experiment [2], 3240 ± 50 nM; with A549 (lung cancer) it was 1200 ± 50 nM; in experiment [3], 2310 ± 110 nM. Further, the IC50 on CDK9/cyclin T1 amounted to 65 ± 23 nM; at CDK2/cyclin A, 300 ± 70 nM.

Take `CN1CCCN(c2cccc(Nc3ncc(F)c(Nc4c(F)cccc4F)n3)c2)CC1` [3n, N ^4-(2,6-Difluorophenyl)-5-fluoro-N^2-(3-(4-methyl-1,4-diazepan-1-yl)phenyl) pyrimidine-2,4-diamine]: the GI50 in experiment [1] came out at 7160 ± 540 nM; in experiment [2], 4770 ± 270 nM; with A549 (lung cancer), 710 ± 10 nM; in experiment [3], 4440 ± 420 nM. Besides, the results for the IC50 on CDK9/cyclin T1 and at CDK2/cyclin A were 1600 ± 100 nM and 950 ± 270 nM, respectively.

Regarding `Cc1ccc(Nc2ncc(F)c(Nc3c(F)cccc3F)n2)cc1NC(=O)CN(C)C` [3j, N-(5-((4-((2,6-Difluorophenyl)amino)-5-fluoropyrimidin-2-yl)amino)-2-methylphenyl)-2-(dimethylamino)acetamide], the GI50 in experiment [1] worked out at 2370 ± 620 nM; in experiment [2], 5310 ± 190 nM; in the experiment with A549 (lung cancer), 1150 ± 80 nM; in experiment [3] it was 600 ± 40 nM.

`CN(C)CC(=O)Nc1cccc(Nc2ncc(F)c(Nc3cc(F)cc(F)c3)n2)c1` [2g, N-(3-((4-((3,5-Difluorophenyl)amino)-5-fluoropyrimidin-2-yl)amino)phenyl)-2-(dimethylamino)acetamide]: the GI50 in experiment [1] was found to be 670 ± 30 nM; in experiment [2], 4640 ± 60 nM; in the experiment with A549 (lung cancer) it was 710 ± 60 nM; in experiment [3], 560 ± 80 nM. Further, the figures for the IC50 against CDK9/cyclin T1 and at CDK2/cyclin A were 490 ± 270 nM and 570 ± 50 nM, respectively.

`CC(=O)c1ccc(Nc2nc(Nc3cccc(NC(=O)CN(C)C)c3)ncc2F)cc1` [2b, N-(3-((4-((4-Acetylphenyl)amino)-5-fluoropyrimidin-2-yl)amino)phenyl)-2-(dimethylamino)acetamide]: the GI50 in experiment [1] worked out at 3800 ± 240 nM; in experiment [2], 5800 ± 80 nM; in the experiment with A549 (lung cancer), 2330 ± 30 nM; in experiment [3], 2200 ± 370 nM. Also, the IC50 against CDK9/cyclin T1 worked out at 390 ± 80 nM; against CDK2/cyclin A, 780 ± 40 nM.

With `CN(C)CC(=O)Nc1cccc(Nc2ncc(F)c(Nc3c(F)cccc3F)n2)c1` [2e, N-(3-((4-((2,6-Difluorophenyl)amino)-5-fluoropyrimidin-2-yl)amino)phenyl)-2-(dimethylamino)acetamide], the GI50 in experiment [1] was determined as 4490 ± 30 nM; in experiment [2], 3980 ± 160 nM; in the experiment with A549 (lung cancer) it was 1310 ± 70 nM; in experiment [3], 4780 ± 380 nM.

As to `CN(C)CC(=O)Nc1cccc(Nc2ncc([N+](=O)[O-])c(Nc3c(F)cccc3F)n2)c1` [2i, N-(3-((4-((2,6-Difluorophenyl)amino)-5-nitropyrimidin-2-yl)amino)phenyl)-2-(dimethylamino)acetamide], the 50% growth inhibitory concentration (GI50) in experiment [1] came to 10230 ± 30 nM; in experiment [2], 5940 ± 330 nM; in the experiment with A549 (lung cancer), 4900 ± 450 nM; in experiment [3], 5730 ± 350 nM. In addition, the IC50 worked out at 480 ± 80 nM on CDK9/cyclin T1 and 780 ± 120 nM against CDK2/cyclin A.

In the case of `CN(C)CC(=O)Nc1ccc(Nc2ncc(F)c(Nc3c(F)cccc3F)n2)cc1` [3k, N-(4-((4-((2,6-Difluorophenyl)amino)-5-fluoropyrimidin-2-yl)amino)phenyl)-2-(dimethylamino)acetamide], the GI50 stood at 4480 ± 390 nM in experiment [1], 6010 ± 80 nM in experiment [2], 3040 ± 180 nM in the experiment on A549 (lung cancer) and 3800 ± 340 nM in experiment [3].

Take `CN1CCC(C(=O)Nc2cccc(Nc3ncc(F)c(Nc4c(F)cccc4F)n3)c2)CC1` [3d, N-(3-((4-((2,6-Difluorophenyl)amino)-5-fluoropyrimidin-2-yl)amino)phenyl)-1-methylpiperidine-4-carboxamide]: the GI50 in experiment [1] came out at 6160 ± 140 nM; in experiment [2], 3300 ± 230 nM; in the experiment with A549 (lung cancer), 1090 ± 30 nM; in experiment [3], 2600 ± 450 nM. Further, the IC50 at CDK9/cyclin T1 turned out to be 660 ± 20 nM; against CDK2/cyclin A, 130 ± 20 nM.

Consider `CC(C)CC(=O)Nc1cccc(Nc2ncc(F)c(Nc3c(F)cccc3F)n2)c1` [3a, N-(3-((4-((2,6-Difluorophenyl)amino)-5-fluoropyrimidin-2-yl)amino)phenyl)-3-methylbutanamide], for which the GI50 in experiment [1] is 5970 ± 190 nM; in experiment [2], over 10000 nM; in the experiment on A549 (lung cancer), 720 ± 40 nM; in experiment [3], 590 ± 50 nM. The half-inhibitory concentration (IC50) amounted to 480 ± 220 nM against CDK9/cyclin T1 and 1100 ± 150 nM against CDK2/cyclin A.

Regarding `CN(C)CCNC(=O)c1cccc(Nc2ncc(F)c(Nc3c(F)cccc3F)n2)c1` [3e, 3-((4-((2,6-Difluorophenyl)amino)-5-fluoropyrimidin-2-yl)amino)-N-(2-(dimethylamino)ethyl)benzamide], the GI50 was determined as 6730 ± 230 nM in experiment [1], 5420 ± 350 nM in experiment [2], 720 ± 10 nM with A549 (lung cancer) and 3820 ± 110 nM in experiment [3]. Also, the figures for the IC50 against CDK9/cyclin T1 and against CDK2/cyclin A were 230 ± 10 nM and 750 ± 140 nM, respectively.

As to `CN(C)CC(=O)Nc1cccc(Nc2ncc(F)c(Nc3c(Cl)cccc3Cl)n2)c1` [2f, N-(3-((4-((2,6-Dichlorophenyl)amino)-5-fluoropyrimidin-2-yl)amino)phenyl)-2-(dimethylamino)acetamide], the GI50 in experiment [1] worked out at 6020 ± 510 nM; in experiment [2], 13000 ± 380 nM; in the experiment with A549 (lung cancer), 3470 ± 440 nM; in experiment [3], 7040 ± 80 nM. Besides, the IC50 on CDK9/cyclin T1 was found to be 570 ± 120 nM; against CDK2/cyclin A it was 1600 ± 110 nM.

With `CN(C)CC(=O)Nc1cccc(Nc2ncc(F)c(Nc3ccc(Cl)cc3)n2)c1` [2c, N-(3-((4-((4-Chlorophenyl)amino)-5-fluoropyrimidin-2-yl)amino)phenyl)-2-(dimethylamino)acetamide], the GI50 in experiment [1] worked out at 3940 ± 310 nM; in experiment [2], 6770 ± 380 nM; in the experiment on A549 (lung cancer), 2120 ± 260 nM; in experiment [3], 2030 ± 320 nM. Further, the IC50 against CDK9/cyclin T1 worked out at 1100 ± 20 nM; against CDK2/cyclin A, 910 ± 110 nM.

As to `COc1ccc(Nc2ncc(F)c(Nc3c(F)cccc3F)n2)cc1NC(=O)CN(C)C` [3i, N-(5-((4-((2,6-Difluorophenyl)amino)-5-fluoropyrimidin-2-yl)amino)-2-methoxyphenyl)-2-(dimethylamino)acetamide], the GI50 in experiment [1] turned out to be 1880 ± 120 nM; in experiment [2] it was 4050 ± 140 nM; in the experiment on A549 (lung cancer), 700 ± 2 nM; in experiment [3] it was 2870 ± 240 nM.

Consider `CN1CCN(c2cccc(Nc3ncc(F)c(Nc4c(F)cccc4F)n3)c2)CC1` [3m, N ^4-(2,6-Difluorophenyl)-5-fluoro-N^2-(3-(4-methylpiperazin-1-yl)phenyl) pyrimidine-2,4-diamine], for which the GI50 in experiment [1] turned out to be 7760 ± 520 nM; in experiment [2] it was 2840 ± 670 nM; in the experiment on A549 (lung cancer), 1250 ± 80 nM; in experiment [3], 400 ± 90 nM. Besides, the IC50 was determined as 290 ± 2 nM against CDK9/cyclin T1 and 470 ± 40 nM against CDK2/cyclin A.

In the case of `CN(C)CC(=O)Nc1cccc(Nc2ncc(F)c(NN3CCN(C)CC3)n2)c1` [2h, 2-(Dimethylamino)-N-(3-((5-fluoro-4-((4-methylpiperazin-1-yl)amino)pyrimidin-2-yl)amino)phenyl)acetamide], the GI50 (in experiment [1]; in experiment [2]; in the experiment on A549 (lung cancer); in experiment [3]) was over 10000 nM throughout. In addition, the IC50 on CDK9/cyclin T1 was 2200 ± 320 nM; against CDK2/cyclin A, 5600 ± 530 nM.
